One may read the fraction unbound as the share of the substance not bound to proteins or other matrix.

The test system of series [1] is PfArk2 (PF3D7_0309200) cKD parasites. As to the kind of experiment: Inhibitor susceptibility assay, PfArk2 conditional knockdown line. Format: cell-based, Plasmodium falciparum. The conditions noted are these: cKD versus control. As to the method:
Compound susceptibility assays using P. falciparum Ark1 and Ark2 cKD lines were carried out as previously described^[13]. Ark1 (PF3D7_0605300) and Ark2 (PF3D7_0309200) cKD lines generated by fusing the coding sequence and non-coding RNA aptamer sequences in the 5’- and 3’-UTR, permitting translation regulation using the TetR-DOZI system^[14]. Editing was achieved by CRISPR/SpCas9 using the linear pSN054 vector that contains cloning sites for the left homology region (LHR) and the right homology region (RHR), as well as a gene-specific guide RNA under control of the T7 promoter^[15]. The final constructs were sequence-verified and further confirmed by restriction digests. Transfection into Cas9- and T7 RNA polymerase-expressing NF54 parasites was carried out by pre-loading erythrocytes with the donor vector as previously described^[16]. Parasite culture was maintained continuously in 500 nM anhydrotetracycline (aTc, Sigma-Aldrich 37919) and drug selection with 2.5 μg/mL of Blasticidin S (RPI Corp B12150-0.1) was initiated four days after transfection. Briefly, synchronous ring-stage Ark1 (PF3D7_0605300) and Ark2 (PF3D7_0309200) cKD parasites, as well as a control parasite line expressing an aptamer-regulatable fluorescent protein, were maintained in the presence of high aTc (500 nM) or no aTc and distributed into 384-well polystyrene microplates (Corning). […]

Series [2] in a line: Protein binding in Albumax II media. The conditions noted are these: bovine. The class given is in vitro ADME.
Text: In vitro ADME analysis for logD, kinetic solubility (PBS, pH 7.4), human liver microsome clearance and t1/2, rat hepatocyte clearance and t1/2, and protein binding in Albumax media (simulating the malaria parasite culture media) was all performed as per standard assays by TCG LifeSciences.

For `COc1cc(N2CCC(N3CCN(C)CC3)CC2)ccc1Nc1ncc(Cl)c(Nc2ccccc2S(=O)(=O)C(C)C)n1` [TAE684, NVP-TAE684], the “change in IC50 in PfArk2 cKD” value in series [1] is reported as “no change in the IC50 value”. In series [2], this compound had a fraction unbound of 0.2.
